Measurements taken from ChEMBL document CHEMBL4651402, “Screening of ~5500 FDA-approved drugs and clinical candidates for anti-SARS-CoV-2 activity” (2021).
Where a name gives a salt, the structure may show the parent alone.

Tested on: SARS-CoV-2
Assay: microbe, parasite or virus in culture
Conditions: Severe acute respiratory syndrome coronavirus 2, Vero C1008, 48 h

`NCC(=O)O` [GLYCINE] was tested, and the IC50 was > 20 µM and the IC50 (read-out: pIC50 (converted)) was > 20 µM.

`CNC(=O)[C@H]1O[C@@H](n2cnc3c(NCc4cccc(I)c4)ncnc32)[C@@H](O)[C@H]1O` was tested, and the IC50 was > 20 µM and the IC50 (read-out: pIC50 (converted)) was > 20 µM.

`Nc1ncc2ncn(CC3(OCP(=O)(O)O)CC3)c2n1` [BESIFOVIR] was tested, and the IC50 was > 20 µM and the IC50 (read-out: pIC50 (converted)) was > 20 µM.

For `C=CC(C)NC(=S)NNC(=S)NC` (centres undefined) [METHALLIBURE], the IC50 was > 20 µM and the IC50 (read-out: pIC50 (converted)) was > 20 µM.

With `COc1ccc(CN(CCN(C)C)c2ncccn2)cc1` [THONZYLAMINE] the IC50 was > 20 µM and the IC50 (read-out: pIC50 (converted)) was > 20 µM.

In the case of `CCc1oc2ccccc2c1C(=O)c1cc(Br)c(O)c(Br)c1` [BENZBROMARONE], the IC50 is reported as > 20 µM and the IC50 (read-out: pIC50 (converted)) is reported as > 20 µM.

`CN1C(C(=O)Nc2nccs2)=C(O)c2ccccc2S1(=O)=O` [SUDOXICAM] was tested, and the IC50 was > 20 µM and the IC50 (read-out: pIC50 (converted)) was > 20 µM.

In the case of `CN1C2CCC1CC(OC1c3ccccc3CCc3ccccc31)C2` (centres undefined), the IC50 is reported as > 20 µM and the IC50 (read-out: pIC50 (converted)) is reported as > 20 µM.

For `O=[N+]([O-])OC1COC2C(O[N+](=O)[O-])COC12` (centres undefined), the IC50 was > 20 µM and the IC50 (read-out: pIC50 (converted)) was > 20 µM.

`N[C@@H](CCC(=O)N[C@@H](Cc1c[nH]c2ccccc12)C(=O)O)C(=O)O` was tested, and the IC50 was > 20 µM and the IC50 (read-out: pIC50 (converted)) was > 20 µM.

In the case of `CCC12CCN(CC3CCC3)[C@@H](Cc3ccc(O)cc31)C2(C)C`, the IC50 is reported as > 20 µM and the IC50 (read-out: pIC50 (converted)) is reported as > 20 µM.

For `CCCCC1=NC2(CCCC2)C(=O)N1Cc1ccc(-c2ccccc2-c2nnn[nH]2)cc1` [IRBESARTAN], the IC50 was > 20 µM and the IC50 (read-out: pIC50 (converted)) was > 20 µM.

For `CC1C2Cc3ccc(O)cc3C1(C)CCN2C` (centres undefined), the IC50 was > 20 µM and the IC50 (read-out: pIC50 (converted)) was > 20 µM.

With `CC(C)COC(=O)c1ccc(N)cc1` [ISOBUTAMBEN] the IC50 was > 20 µM and the IC50 (read-out: pIC50 (converted)) was > 20 µM.

For `Cc1cc(NS(=O)(=O)c2ccc(N)cc2)no1` [SULFAMETHOXAZOLE], the IC50 was > 20 µM and the IC50 (read-out: pIC50 (converted)) was > 20 µM.

In the case of `CO/N=C(\C#N)[C@@H]1CN2CCC1CC2`, the IC50 is reported as > 20 µM and the IC50 (read-out: pIC50 (converted)) is reported as > 20 µM.

`CN(C)CC/C=C1\c2ccccc2CN(C)c2ccccc21` was tested, and the IC50 was > 20 µM and the IC50 (read-out: pIC50 (converted)) was > 20 µM.

`C=CC(=O)N1C[C@H](COc2nc(Nc3cnn(C)c3)nc3[nH]cc(Cl)c23)[C@@H](OC)C1` [PF-06459988] was tested, and the IC50 was > 20 µM and the IC50 (read-out: pIC50 (converted)) was > 20 µM.

With `CCOc1cc(N)c(Cl)cc1C(=O)NCC1CN(Cc2ccc(F)cc2)CCO1` (centres undefined) [MOSAPRIDE] the IC50 was > 20 µM and the IC50 (read-out: pIC50 (converted)) was > 20 µM.

For `CCCCCCCCCCCCCCCC[N+](C)(C)C` [CETRIMONIUM], the IC50 was > 20 µM and the IC50 (read-out: pIC50 (converted)) was > 20 µM.

With `OCC(O)CO` [GLYCERIN] the IC50 was > 20 µM and the IC50 (read-out: pIC50 (converted)) was > 20 µM.

`CCN(CC)CCSC(=O)C(c1ccccc1)c1ccccc1` was tested, and the IC50 was > 20 µM and the IC50 (read-out: pIC50 (converted)) was > 20 µM.

For `O=C(CCCN1CCC(O)(c2cccc(C(F)(F)F)c2)CC1)c1ccc(F)cc1` [TRIFLUPERIDOL], the IC50 was > 20 µM and the IC50 (read-out: pIC50 (converted)) was > 20 µM.

For `COC(=O)N[C@@H](C(=O)N1CCC[C@@H]1c1ncc(-c2ccc(-c3ccc(-c4cnc([C@H]5CC6(CN5C(=O)[C@H](NC(=O)OC)C(C)C)OCCO6)[nH]4)cc3)cc2)[nH]1)C(C)C`, the IC50 was > 20 µM and the IC50 (read-out: pIC50 (converted)) was > 20 µM.

With `COc1cc(C)c(/C=C/C(C)=C/C=C/C(C)=C/C(=O)O)c(C)c1C` [ACITRETIN] the IC50 was > 20 µM and the IC50 (read-out: pIC50 (converted)) was > 20 µM.

In the case of `N=C(N)NCCCNC(=O)[C@@H]1CCCCN1C(=O)[C@H](CC1CCCCC1)NCC(=O)O`, the IC50 is reported as > 20 µM and the IC50 (read-out: pIC50 (converted)) is reported as > 20 µM.

With `O=C(CCCN1CCC(n2c(=O)[nH]c3ccccc32)CC1)c1ccc(F)cc1` [BENPERIDOL] the IC50 was > 20 µM and the IC50 (read-out: pIC50 (converted)) was > 20 µM.

In the case of `CC(C)(C)NC(=O)c1nn(-c2ccc(F)cc2F)c2c1C1CCC2C1` (centres undefined), the IC50 is reported as > 20 µM and the IC50 (read-out: pIC50 (converted)) is reported as > 20 µM.

With `COc1ccc(-c2cc(=O)c3ccccc3o2)cc1` [4'-METHOXYFLAVONE] the IC50 was > 20 µM and the IC50 (read-out: pIC50 (converted)) was > 20 µM.

In the case of `O=C1N[C@@H](C(=O)O)CS1`, the IC50 is reported as > 20 µM and the IC50 (read-out: pIC50 (converted)) is reported as > 20 µM.

With `CN1CCCC(CN2c3ccccc3Sc3ccccc32)C1` (centres undefined) [MEPAZINE] the IC50 was > 20 µM and the IC50 (read-out: pIC50 (converted)) was > 20 µM.

With `CCC[C@@H]1C[C@@H](C(=O)N[C@@H]([C@H]2O[C@H](SC)[C@H](O)[C@@H](O)[C@H]2O)[C@H](C)Cl)N(C)C1` [CLINDAMYCIN HYDROCHLORIDE] the IC50 was > 20 µM and the IC50 (read-out: pIC50 (converted)) was > 20 µM.
